This passage reports late gene expression activity score results from PubChem BioAssay AID1117275 (Broad Institute, 2014).

Activity calls are given as the source filed them. How the calls were made is not given here.

The experiment has as its system orthopoxvirus-infected cells, imaging factories/early/late reporters. Description: orthopoxvirus gene expression and factory inhibitors, imaging, high MOI, single point, dry powder (AID 1117275). The note with it: at 10 µM; stronger effect = higher value.

Consider `Cc1ccccc1-c1ccc(CN(C)C[C@@H]2Oc3cc(C#C[C@@H](C)O)ccc3S(=O)(=O)N([C@@H](C)CO)C[C@@H]2C)cc1`, for which the late gene expression activity score is 67.

For the molecule `C[C@@H](O)C#Cc1ccc2c(c1)O[C@@H](CN(C)Cc1ccc(-c3ccccc3)cc1)[C@@H](C)CN([C@@H](C)CO)S2(=O)=O`, the late gene expression activity score is 17 (inactive).

On to `Cc1cccc(-c2ccc(CN(C)C[C@@H]3Oc4cc(C#C[C@@H](C)O)ccc4S(=O)(=O)N([C@@H](C)CO)C[C@@H]3C)cc2)c1`, for which the late gene expression activity score was 78.

On to `C[C@@H](O)C#Cc1ccc2c(c1)O[C@@H](CN(C)S(=O)(=O)c1ccc(-c3ccccc3)cc1)[C@@H](C)CN([C@@H](C)CO)S2(=O)=O`, for which the late gene expression activity score was 86.

Regarding `Cc1ccc(-c2ccc(CN(C)C[C@@H]3Oc4cc(C#C[C@@H](C)O)ccc4S(=O)(=O)N([C@@H](C)CO)C[C@@H]3C)cc2)cc1`, the late gene expression activity score was 73.

Turning to `C[C@@H](O)C#Cc1ccc2c(c1)O[C@@H](CN(C)Cc1ccc(-c3ccccc3Cl)cc1)[C@@H](C)CN([C@@H](C)CO)S2(=O)=O`, the late gene expression activity score is 71.
